Measurements as given in ChEMBL document CHEMBL5725277, “Pyrazine derivatives as CB2 receptor agonists” (2016).

Legend:
[1] = target: Cannabinoid receptor 2 (Homo sapiens, UniProt P34972); experiment: (§1) cAMP Assay: CHO cells expressing human CB1 or CB2 receptors are seeded 17-24 hours prior to the experiment 50.000 cells per well in a black 96 well plate with flat clear bottom (Corning Costar #3904) in DMEM (Invitrogen No. 31331), 1xHT supplement, with 10% fetal calf serum and incubated at 5% CO2 and 37° C. in a humidified incubator. The growth medium was exchanged with Krebs Ringer Bicarbonate buffer with 1 mM IBMX and incubated at 30° C. for 30 min. Compounds were added to a final assay volume of 100 ul and incubated for 30 min at 30° C. Using the cAMP-Nano-TRF detection kit the assay (Roche Diagnostics) was stopped by the addition of 50 ul lysis reagent (Tris, NaCl, 1.5% Triton X100, 2.5% NP40, 10% NaN3) and 50 ul detection solutions (20 uM mAb Alexa700-cAMP 1:1, and 48 uM Ruthenium-2-AHA-cAMP) and shaken for 2 h at room temperature. The time-resolved energy transfer is measured by a TRF reader (Evotec Technologies GmbH), equipped with a ND:YAG laser as excitation source. The plate is measured twice with the excitation at 355 nm and at the emission with a delay of 100 ns and a gate of 100 ns, total exposure time 10 s at 730 (bandwidth 30 nm) or 645 nm (bandwidth 75 nm), respectively. The FRET signal is calculated as follows: FRET=T730-Alexa730-P (T645-B645) with P=Ru730-B730/Ru645-B645, where T730 is the test well measured at […], T645 is the test well measured at 645 nm, B730 and B645 are the buffer controls at 730 nm and 645 nm, respectively. cAMP content is determined from the function of a standard curve spanning from 10 uM to 0.13 nM cAMP. EC50 values were determined using Activity Base analysis (ID Business Solution, Limited). The EC50 values for a wide range of cannabinoid agonists generated from this assay were in agreement with the values published in the scientific literature.
Chain of Cannabinoid receptor 2 (P34972 whole entry): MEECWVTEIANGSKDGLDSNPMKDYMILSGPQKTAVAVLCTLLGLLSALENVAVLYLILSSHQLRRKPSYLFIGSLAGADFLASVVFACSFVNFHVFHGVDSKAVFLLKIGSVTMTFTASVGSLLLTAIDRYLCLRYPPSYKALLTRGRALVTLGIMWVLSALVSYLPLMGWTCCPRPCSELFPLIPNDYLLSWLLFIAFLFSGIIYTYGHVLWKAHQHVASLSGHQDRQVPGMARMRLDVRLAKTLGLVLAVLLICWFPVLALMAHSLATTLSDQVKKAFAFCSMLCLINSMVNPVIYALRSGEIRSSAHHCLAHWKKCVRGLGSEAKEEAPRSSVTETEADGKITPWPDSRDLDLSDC

[2] = target: Cannabinoid receptor 1 (Homo sapiens, UniProt P21554); experiment: as §1
Chain of Cannabinoid receptor 1 (P21554 whole entry): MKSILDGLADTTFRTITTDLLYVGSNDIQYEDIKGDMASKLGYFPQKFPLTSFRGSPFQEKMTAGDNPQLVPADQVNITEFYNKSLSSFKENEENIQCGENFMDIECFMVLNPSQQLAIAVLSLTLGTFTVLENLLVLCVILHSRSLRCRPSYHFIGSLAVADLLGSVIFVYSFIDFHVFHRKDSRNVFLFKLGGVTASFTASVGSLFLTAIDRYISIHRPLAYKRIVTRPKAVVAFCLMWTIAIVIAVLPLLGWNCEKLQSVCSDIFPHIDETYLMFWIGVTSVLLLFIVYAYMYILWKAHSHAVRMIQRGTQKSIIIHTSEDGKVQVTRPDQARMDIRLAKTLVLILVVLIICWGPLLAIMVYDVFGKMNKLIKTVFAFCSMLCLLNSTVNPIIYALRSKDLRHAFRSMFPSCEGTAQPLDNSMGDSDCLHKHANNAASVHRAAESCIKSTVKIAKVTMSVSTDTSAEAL

Structure (SMILES) | EC50 [1] [nM] | EC50 [2] [nM]
CC1(C)CCCN1C(=O)c1cnc(C2CC2)c(OCC2CC2)n1 | 11.2 | > 10000
CCN(C(=O)c1cnc(N2CC(F)(F)C2)c(OCC2CC2)n1)C(C)C | 19.9 | > 10000
NC(=O)[C@@H]1CC(F)(F)CN1C(=O)c1cnc(C2CC2)c(OCC2CC2)n1 | 23.5 | > 10000
